# According to patent publication US20180344715A1, “WNT/BETA-CATENIN SIGNAL TRANSDUCTION INHIBITORS AND THEIR USE IN TREATMENT OR PREVENTION OF DISEASES AND CONDITIONS LINKED WITH SAID TRANSDUCTION” (BERGEN TEKNOLOGIOVERFORING AS, priority 2015, published 2018):
# System: Wnt/β-catenin signaling
# Experiment: TOPFlash reporter assay in 293FT cells
# Assay type: cell-based, human
# Settings: 1 μM 6BIO together with drug at indicated concentrations, 24 hours
# Method: TOPFlash assay was performed in 96-well plate. For each well, 293T cells were transfected with 0.22 μg TOPFlash (or FOPFlash with mutant TCF binding sites) and 0.02 μg pRL-SV40P using lipofectamine 3000. For co-transfection with other plasmids, 0.1 μg additional DNA was used. […] The luciferase activity was measured 24 hours later by using Dual-Glo® Luciferase Assay System (Promega, E2940) according to the recommended protocol. The TOPFlash or FOPFlash activity was normalized to Renilla luciferase signals.
# TOPFlash assay was performed as described above. Briefly, for each well of a 96-well plate 293FT cells were transfected with 0.22 μg TOPFlash (or FOPFlash with mutant TCF binding sites) and 0.02 μg pRL-SV40P using lipofectamine 3000. For co-transfection with other plasmids, 0.1 μg additional DNA was used. Four hours after transfection, 293FT cells were treated with DMSO, 1 μM 6B10 and 1 μM 6B10 together with pazopanib, orlistat and topotecan at varying concentrations for 24 hours. The luciferase activity was then measured using Dual-Glo® Luciferase Assay System (Promega, E2940) according to the recommended protocol. The TOPFlash or FOPFlash activity was normalized to Renilla luciferase signals.
compound,measurement,value
"CC[C@@]1(O)C(=O)OCc2c1cc1n(c2=O)Cc2cc3c(CN(C)C)c(O)ccc3nc2-1.Cl [topotecan, (S)-10-[(dimethylamino)methyl]-4-ethyl-4,9-dihydroxy-1H-pyrano[3′,4′:6,7]indolizino[1,2-b]quinoline-3,14(4H,12H)-dione monohydrochloride]",TOPFlash activity normalized to Renilla luciferase activity,Wnt signaling inhibition
"CCCCCCCCCCC[C@@H](C[C@@H]1OC(=O)[C@H]1CCCCCC)OC(=O)[C@H](CC(C)C)NC=O [orlistat, (S)-((S)-1-((2S,3S)-3-Hexyl-4-oxooxetan-2-yl)tridecan-2-yl) 2-formamido-4-methylpentanoate]",TOPFlash activity normalized to Renilla luciferase activity,Wnt signaling inhibition
